Biological target: PDE4D (Homo sapiens, UniProt Q08499)
Assay: recombinant PDE4 activity assay, [3H]cAMP hydrolysis, dose-response
Type: biochemical

Chain of PDE4D (Q08499 whole entry): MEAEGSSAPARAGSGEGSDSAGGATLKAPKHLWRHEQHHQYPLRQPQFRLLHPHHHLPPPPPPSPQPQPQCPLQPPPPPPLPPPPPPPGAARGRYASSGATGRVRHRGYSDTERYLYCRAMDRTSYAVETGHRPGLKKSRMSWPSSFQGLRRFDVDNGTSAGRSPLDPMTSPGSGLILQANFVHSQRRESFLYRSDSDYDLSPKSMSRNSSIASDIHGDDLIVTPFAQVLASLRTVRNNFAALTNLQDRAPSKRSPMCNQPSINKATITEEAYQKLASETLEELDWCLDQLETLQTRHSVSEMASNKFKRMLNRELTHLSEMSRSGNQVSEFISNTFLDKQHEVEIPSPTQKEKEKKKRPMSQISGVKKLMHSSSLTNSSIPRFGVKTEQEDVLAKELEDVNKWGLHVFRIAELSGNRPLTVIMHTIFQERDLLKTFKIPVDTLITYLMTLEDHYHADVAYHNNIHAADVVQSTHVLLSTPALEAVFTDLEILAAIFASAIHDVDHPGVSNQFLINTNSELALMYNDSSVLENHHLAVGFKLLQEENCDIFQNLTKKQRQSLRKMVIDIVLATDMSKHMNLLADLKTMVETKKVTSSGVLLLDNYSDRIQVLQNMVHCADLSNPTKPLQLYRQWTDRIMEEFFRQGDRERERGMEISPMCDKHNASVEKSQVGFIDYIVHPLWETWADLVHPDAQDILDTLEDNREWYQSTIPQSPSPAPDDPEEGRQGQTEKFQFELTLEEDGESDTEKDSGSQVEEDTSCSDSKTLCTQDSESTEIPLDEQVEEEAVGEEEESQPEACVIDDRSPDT

IC50: ~450 nM
Compound: COc1ccc(C(=O)Nc2ccccc2C)cc1OC [CBU91, 3,4-dimethoxy-N-(o-tolyl)benzamide]

— article PMC8211267, “Potent PDE4 inhibitor activates AMPK and Sirt1 to induce mitochondrial biogenesis” (PLoS ONE, 2021)
